In patent US20240343727A1, “PYRIDAZINONE OR PYRIDINONE COMPOUNDS, PREPARATION METHODS AND USES THEREOF” (InventisBio Co., Ltd., priority 2021, published 2024):

target: T1, PARP7 (Homo sapiens, UniProt Q7Z3E1); assay: PARP7 TR-FRET assay (binding, displacement of biotinylated Probe A); settings: 6 nM PARP7, 2 nM Probe A, 25° C., 30 min
T1 sequence (Q7Z3E1 1-657): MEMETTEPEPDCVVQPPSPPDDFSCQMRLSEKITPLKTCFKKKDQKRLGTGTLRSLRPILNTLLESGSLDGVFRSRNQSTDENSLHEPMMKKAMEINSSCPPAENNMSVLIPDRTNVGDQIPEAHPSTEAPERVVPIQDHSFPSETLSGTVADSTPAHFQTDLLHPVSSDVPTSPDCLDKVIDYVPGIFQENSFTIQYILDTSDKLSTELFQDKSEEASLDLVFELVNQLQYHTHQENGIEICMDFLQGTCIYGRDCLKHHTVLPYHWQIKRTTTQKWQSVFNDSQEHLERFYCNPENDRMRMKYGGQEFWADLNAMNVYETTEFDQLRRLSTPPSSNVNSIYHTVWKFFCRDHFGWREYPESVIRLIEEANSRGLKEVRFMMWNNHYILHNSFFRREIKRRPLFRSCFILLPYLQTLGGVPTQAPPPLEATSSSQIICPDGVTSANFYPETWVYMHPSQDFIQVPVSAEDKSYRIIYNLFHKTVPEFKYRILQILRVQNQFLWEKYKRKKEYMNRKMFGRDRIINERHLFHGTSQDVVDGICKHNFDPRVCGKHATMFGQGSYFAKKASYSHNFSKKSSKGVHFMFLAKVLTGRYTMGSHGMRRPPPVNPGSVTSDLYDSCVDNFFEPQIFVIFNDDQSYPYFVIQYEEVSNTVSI
Procedure, shortened: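 Compound displacement of biotinylated Probe A (2 nM) from PARP7 (6 nM) measured by TR-FRET in HEPES pH 8.0 buffer, 30 min at 25° C. Detection used ULight-anti 6xHis (4 nM) plus Eu-streptavidin (0.25 nM) for 30 min, reading the 665/615 nm ratio. % inhibition was taken against DMSO and no-enzyme wells, and IC50 from a Hill fit.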

`O=C(c1cccc(Oc2n[nH]c(=O)c(C(F)(F)F)c2N2CC3(C2)CC(F)(F)C3)c1)N1CCN(c2ncc(C(F)(F)F)cn2)CC1` [Compound 175] and `O=C(c1cncc(Oc2n[nH]c(=O)c(C(F)(F)F)c2N2CC3(C2)CC(F)(F)C3)c1)N1CCN(c2ncc(C(F)(F)F)cn2)CC1` [Compound 238] cannot be ordered by IC50: less than 100 nM for the first, less than 100 nM for the second.

`O=C(c1cccc(Oc2n[nH]c(=O)c(C(F)(F)F)c2N2CC3(CC(F)C3)C2)c1)N1CCN(c2ncc(C(F)(F)F)cn2)CC1` [Compound 176] and `O=C(c1cccc(Oc2n[nH]c(=O)c(C(F)(F)F)c2N2CC3(CCO3)C2)c1)N1CCN(c2ncc(C(F)(F)F)cn2)CC1` [Compound 212] cannot be ordered by IC50: less than 100 nM for the first, less than 100 nM for the second.

`O=C(c1cccc(Oc2n[nH]c(=O)c(C(F)(F)F)c2N2CC3(CCC3)C2)c1)N1CCN(c2ccc(C3CC3)cn2)CC1` [Compound 177] and `O=C(c1cccc(Oc2n[nH]c(=O)c(C(F)(F)F)c2N2CC3(CCC3)C2)c1)N1CCN(c2ccc(Cl)cn2)CC1` [Compound 182] cannot be ordered by IC50: less than 100 nM for the first, less than 100 nM for the second.

First: O=C(c1cccc(Oc2n[nH]c(=O)c(C(F)(F)F)c2N2CC3(CCC3)C2)c1)N1CCn2c(nnc2C(F)(F)F)C1 [Compound 178]
Second: O=C(c1cccc(Oc2n[nH]c(=O)c(C(F)(F)F)c2N2CC3(CCC3)C2)c1)N1CCN(c2nnc(C(F)(F)F)s2)CC1 [Compound 231]
The IC50 of the first is higher: 100 to 1000 nM for the first, less than 100 nM for the second. The second is the more potent here.

`O=C(c1cccc(Oc2n[nH]c(=O)c(C(F)(F)F)c2N2CC(C3CC3)C2)c1)N1CCN(c2ncc(C(F)(F)F)cn2)CC1` [Compound 180] and `CC1CN(c2c(Oc3cccc(C(=O)N4CCN(c5ncc(C(F)(F)F)cn5)CC4)c3)n[nH]c(=O)c2C(F)(F)F)C1` [Compound 181] cannot be ordered by IC50: less than 100 nM for the first, less than 100 nM for the second.

`CC(C)C1CN(c2c(Oc3cccc(C(=O)N4CCN(c5ncc(C(F)(F)F)cn5)CC4)c3)n[nH]c(=O)c2C(F)(F)F)C1` [Compound 183] and `C#CC1CN(c2c(Oc3cccc(C(=O)N4CCN(c5ncc(C(F)(F)F)cn5)CC4)c3)n[nH]c(=O)c2C(F)(F)F)C1` [Compound 185] cannot be ordered by IC50: less than 100 nM for the first, less than 100 nM for the second.

`COCC1CN(c2c(Oc3cccc(C(=O)N4CCN(c5ncc(C(F)(F)F)cn5)CC4)c3)n[nH]c(=O)c2C(F)(F)F)C1` [Compound 186] and `CCOC1CN(c2c(Oc3cccc(C(=O)N4CCN(c5ncc(C(F)(F)F)cn5)CC4)c3)n[nH]c(=O)c2C(F)(F)F)C1` [Compound 214] cannot be ordered by IC50: less than 100 nM for the first, less than 100 nM for the second.

`O=C(c1cccc(Oc2n[nH]c(=O)c(C(F)(F)F)c2N2CC3(CCC3)C2)c1)N1CCN(c2ccc(C(F)(F)F)cn2)CC1` [Compound 187] and `O=C(c1cccc(Oc2n[nH]c(=O)c(C(F)(F)F)c2N2CC3(CCC3)C2)c1)N1CCN(c2cnc(C(F)F)cn2)CC1` [Compound 189] cannot be ordered by IC50: less than 100 nM for the first, less than 100 nM for the second.

`CO[C@H]1C[C@H](Nc2c(Oc3cccc(C(=O)N4CCN(c5ncc(C(F)(F)F)cn5)CC4)c3)n[nH]c(=O)c2C(F)(F)F)C1` [Compound 190] and `CO[C@H]1C[C@@H](Nc2c(Oc3cccc(C(=O)N4CCN(c5ncc(C(F)(F)F)cn5)CC4)c3)n[nH]c(=O)c2C(F)(F)F)C1` [Compound 191] cannot be ordered by IC50: less than 100 nM for the first, less than 100 nM for the second.

`COC[C@H]1C[C@@H]1Nc1c(Oc2cccc(C(=O)N3CCN(c4ncc(C(F)(F)F)cn4)CC3)c2)n[nH]c(=O)c1C(F)(F)F` [Compound 198] and `O=C(c1cccc(Oc2n[nH]c(=O)c(C(F)(F)F)c2NCC2CC2)c1)N1CCN(c2ncc(C(F)(F)F)cn2)CC1` [Compound 204] cannot be ordered by IC50: less than 100 nM for the first, less than 100 nM for the second.

`O=C(c1cccc(Oc2n[nH]c(=O)c(C(F)(F)F)c2NC2CC3(COC3)C2)c1)N1CCN(c2ncc(C(F)(F)F)cn2)CC1` [Compound 202] and `O=C(c1cccc(Oc2n[nH]c(=O)c(C(F)(F)F)c2NCC2CCOCC2)c1)N1CCN(c2ncc(C(F)(F)F)cn2)CC1` [Compound 203] cannot be ordered by IC50: less than 100 nM for the first, less than 100 nM for the second.

First: O=C(C[C@@H]1CN(c2n[nH]c(=O)c3ccc(N4CC(F)C4)cc23)CCO1)N1CCN(c2ncc(C(F)(F)F)cn2)CC1 [Compound 207]
Second: N#Cc1ccc2c(N3CCOC(CC(=O)N4CCN(c5ncc(C(F)(F)F)cn5)CC4)C3)n[nH]c(=O)c2c1 (stereo not shown) [Compound 243]
The IC50 of the first is lower: less than 100 nM for the first, 100 to 1000 nM for the second. The first is the more potent here.

`CC1(C#N)CN(c2c(Oc3cccc(C(=O)N4CCN(c5ncc(C(F)(F)F)cn5)CC4)c3)n[nH]c(=O)c2C(F)(F)F)C1` [Compound 213] and `O=C(c1cccc(Oc2n[nH]c(=O)c(C(F)(F)F)c2N2CC3(CCC3)C2)c1)N1CCN(c2ncc(OC(F)(F)F)cn2)CC1` [Compound 276] cannot be ordered by IC50: less than 100 nM for the first, less than 100 nM for the second.

`O=C(c1cccc(Oc2n[nH]c(=O)c(C(F)(F)F)c2OCC2CCOCC2)c1)N1CCN(c2ncc(C(F)(F)F)cn2)CC1` [Compound 217] and `O=C(c1cncc(Oc2n[nH]c(=O)c(C(F)(F)F)c2N2CC(C3CC3)C2)c1)N1CCN(c2ncc(C(F)(F)F)cn2)CC1` [Compound 278] cannot be ordered by IC50: less than 100 nM for the first, less than 100 nM for the second.

`O=C(c1cccc(Oc2n[nH]c(=O)c(C(F)(F)F)c2N2CC3(CCC3)C2)c1)N1CCN(c2ncc(C3CC3)cn2)CC1` [Compound 226] and `O=C(c1cncc(Oc2n[nH]c(=O)c(C(F)(F)F)c2N2CC3(C2)CC(F)(F)C3)c1)N1CCN(c2ncc(C3CC3)cn2)CC1` [Compound 313] cannot be ordered by IC50: less than 100 nM for the first, less than 100 nM for the second.

`O=C(c1cncc(Oc2n[nH]c(=O)c(C(F)(F)F)c2N2CC3(CCCO3)C2)c1)N1CCN(c2ncc(C(F)(F)F)cn2)CC1` [Compound 233] and `O=C(c1cncc(Oc2n[nH]c(=O)c(C(F)(F)F)c2N2CC3(CCCO3)C2)c1)N1CCN(c2ncc(Cl)cn2)CC1` [Compound 234] cannot be ordered by IC50: less than 100 nM for the first, less than 100 nM for the second.

`N#Cc1ccc(N2CCN(C(=O)c3cncc(Oc4n[nH]c(=O)c(C(F)(F)F)c4N4CC5(C4)CC(F)(F)C5)c3)CC2)nc1` [Compound 237] and `N#Cc1ccc(N2CCN(C(=O)c3cc(Oc4n[nH]c(=O)c(C(F)(F)F)c4N4CC5(C4)CC(F)(F)C5)ccn3)CC2)nc1` [Compound 306] cannot be ordered by IC50: less than 100 nM for the first, less than 100 nM for the second.

`COC1CN(c2c(Oc3cncc(C(=O)N4CCN(c5ncc(C(F)(F)F)cn5)CC4)c3)n[nH]c(=O)c2C(F)(F)F)C1` [Compound 239] and `O=C(c1cncc(Oc2n[nH]c(=O)c(C(F)(F)F)c2N2CC(C3CC3)C2)c1)N1CCN(c2ncc(C(F)F)cn2)CC1` [Compound 279] cannot be ordered by IC50: less than 100 nM for the first, less than 100 nM for the second.

`O=C(CC1CN(c2n[nH]c(=O)c3c(F)cc(Cl)cc23)CCO1)N1CCN(c2ncc(C(F)(F)F)cn2)CC1` (stereo not shown) [Compound 242] and `O=C(c1cc(Oc2n[nH]c(=O)c(C(F)(F)F)c2N2CC3(C2)CC(F)(F)C3)ccn1)N1CCN(c2ncc(C(F)(F)F)cn2)CC1` [Compound 304] cannot be ordered by IC50: less than 100 nM for the first, less than 100 nM for the second.

`O=C(c1cccc(Oc2n[nH]c(=O)c(C(F)(F)F)c2N2CC3(CCO3)C2)c1)N1CCN(c2ncc(C(F)(F)F)cn2)C2(CC2)C1` [Compound 253] and `C[C@H]1CN(C(=O)c2cccc(Oc3n[nH]c(=O)c(C(F)(F)F)c3N3CC4(CCO4)C3)c2)CCN1c1ncc(C(F)(F)F)cn1` [Compound 254] cannot be ordered by IC50: less than 100 nM for the first, less than 100 nM for the second.

`C[C@H]1CN(c2ncc(C(F)(F)F)cn2)CCN1C(=O)c1cccc(Oc2n[nH]c(=O)c(C(F)(F)F)c2N2CC3(CCO3)C2)c1` [Compound 255] and `O=C(c1cccc(Oc2n[nH]c(=O)c(C(F)(F)F)c2N2CC3(CCO3)C2)c1)N1CC2CCC(C1)N2c1ncc(C(F)(F)F)cn1` [Compound 257] cannot be ordered by IC50: less than 100 nM for the first, less than 100 nM for the second.

`N#Cc1cnc(N2CCN(C(=O)c3cc(Oc4n[nH]c(=O)c(C(F)(F)F)c4N4CC5(CCC5)C4)ccn3)CC2)nc1` [Compound 273] and `N#Cc1cnc(N2CCN(C(=O)c3cc(Oc4n[nH]c(=O)c(C(F)(F)F)c4N4CC5(C4)CC(F)(F)C5)ccn3)CC2)nc1` [Compound 305] cannot be ordered by IC50: less than 100 nM for the first, less than 100 nM for the second.

`N#Cc1ccc(N2CCN(C(=O)c3cc(Oc4n[nH]c(=O)c(C(F)(F)F)c4N4CC5(CCC5)C4)ccn3)CC2)nc1` [Compound 274] and `O=C(c1cc(Oc2n[nH]c(=O)c(C(F)(F)F)c2N2CC3(C2)CC(F)(F)C3)ccn1)N1CCN(c2ncc(Cl)cn2)CC1` [Compound 307] cannot be ordered by IC50: less than 100 nM for the first, less than 100 nM for the second.

`C#Cc1cnc(N2CCN(C(=O)c3cccc(Oc4n[nH]c(=O)c(C(F)(F)F)c4N4CC5(CCCO5)C4)c3)CC2)nc1` [Compound 275] and `C#Cc1cnc(N2CCN(C(=O)c3cccc(Oc4n[nH]c(=O)c(C(F)(F)F)c4N4CC5(COC5)C4)c3)CC2)nc1` [Compound 302] cannot be ordered by IC50: less than 100 nM for the first, less than 100 nM for the second.

`O=C(c1cncc(Oc2n[nH]c(=O)c(C(F)(F)F)c2N2CC3(C2)CC(F)(F)C3)c1)N1CCN(c2ncc(Cl)cn2)CC1` [Compound 277] and `C#Cc1cnc(N2CCN(C(=O)c3cncc(Oc4n[nH]c(=O)c(C(F)(F)F)c4N4CC5(C4)CC(F)(F)C5)c3)CC2)nc1` [Compound 299] cannot be ordered by IC50: less than 100 nM for the first, less than 100 nM for the second.

`N#Cc1cnc(N2CCN(C(=O)c3cccc(Oc4n[nH]c(=O)c(C(F)(F)F)c4N4CC(C5CC5)C4)c3)CC2)nc1` [Compound 303] and `O=C(c1cc(Oc2n[nH]c(=O)c(C(F)(F)F)c2N2CC3(C2)CC(F)(F)C3)ccn1)N1CCN(c2ncc(C3CC3)cn2)CC1` [Compound 308] cannot be ordered by IC50: less than 100 nM for the first, less than 100 nM for the second.
